Experimental data published in patent publication US8309557B2, “Pyrimidin-4-ylpropanedinitrile derivatives, processes for their preparation and their use as herbicides and plant growth regulators” (Bayer Intellectual Property GmbH, priority 2009, dated 2012).

Legend:
Format in all cases: in vivo
Veronica persica [1] = assay: Herbicidal effect post-emergence, VERPE
Protocol: (§1) Seeds of mono- and dicotyledonous weed plants and crop plants are planted in wood-fiber pots in sandy loam, covered with earth and grown in a greenhouse under good growth conditions. 2 to 3 weeks after sowing, the test plants are treated in the single-leaf stage. The compounds according to the invention, formulated in the form of wettable powders (WP) or as emulsion concentrates (EC), are then sprayed onto the green plant parts as aqueous suspension or emulsion using an application rate of 600 to 800 l of water/ha (converted) with the addition of 0.2% by weight of wetting agent. After the test plants had been in the greenhouse for ca. 3 weeks under optimum growth conditions, the effect of the preparations is scored visually in comparison with untreated controls (herbicidal effect in percent (%): 100% effect=plants have died off, 0% effect=as control plants).

Matricaria inodora = assay: Herbicidal effect post-emergence, MATIN
Protocol: as §1

Amaranthus retroflexus [2] = assay: Herbicidal effect post-emergence, AMARE
Protocol: as §1

[3] = test system: Polygonum (Fallopia) convolvulus; assay: Herbicidal effect post-emergence, POLCO
Protocol: as §1

Viola tricolor [4] = assay: Herbicidal effect post-emergence, VIOTR
Protocol: as §1

Amaranthus retroflexus [5] = assay: Herbicidal effect pre-emergence, AMARE; details: 320 g/hectare, visual grading after 3 weeks vs untreated controls
Excerpt: (§2) Seeds of mono- and dicotyledonous weed plants and crop plants are planted in wood-fiber pots in sandy loam and covered with earth. The compounds according to the invention, formulated in the form of wettable powders (WP) or as emulsion concentrates (EC), are then applied to the surface of the covering earth as aqueous suspension or emulsion at an application rate corresponding to 320 g/hectare at an application rate of 600 to 800 l of water/ha (converted) with the addition of 0.2% wetting agent.
(§3) Following treatment, the pots are placed in a greenhouse and kept under good growth conditions for the test plants. The visual grading of the damage to the test plants is carried out after a test time of 3 weeks in comparison to untreated controls (herbicidal effect in percent (%): 100% effect=plants have died off, 0% effect=as control plants).

Veronica persica [6] = assay: Herbicidal effect pre-emergence, VERPE; details: 320 g/hectare, visual grading after 3 weeks vs untreated controls
Excerpt: as §2, §3

Viola tricolor [7] = assay: Herbicidal effect pre-emergence, VIOTR; details: 320 g/hectare, visual grading after 3 weeks vs untreated controls
Excerpt: as §2, §3

Stellaria media = assay: Herbicidal effect post-emergence, STEME
Protocol: as §1

Setaria viridis = assay: Herbicidal effect post-emergence, SETVI
Protocol: as §1

Abutilon theophrasti = assay: Herbicidal effect post-emergence, ABUTH
Protocol: as §1

Echinochloa crus-galli = assay: Herbicidal effect post-emergence, ECHCG
Protocol: as §1

[8] = 0.32 kg and less of active substance per hectare, visual score after ca. 3 weeks vs untreated controls

Row | Compound | Effect in % in respect of stated plant, VERPE (Veronica persica [1]) | Effect in % in respect of stated plant, MATIN (Matricaria inodora) | Effect in % in respect of stated plant, AMARE (Amaranthus retroflexus [2]) | Effect in % in respect of stated plant, POLCO [3] | Effect in % in respect of stated plant, VERPE (Veronica persica [6]) | Effect in % in respect of stated plant, ABUTH (Abutilon theophrasti) | also measured
1 | N.N#CC(C#N)c1nc(-c2ccc(F)cc2)nc(N)c1Cl [Compound 300] | 80% | 80% | 80% | – | – | – | –
2 | CN.N#CC(C#N)c1nc(-c2ccc(Cl)cc2)nc(N)c1Cl [Compound 309] | 90% | 85% | 95% | 90% | 100% | 90% | Effect in % in respect of stated plant, VIOTR (Viola tricolor [4]): 85%; Effect in % in respect of stated plant, AMARE (Amaranthus retroflexus [5]): 85%; Effect in % in respect of stated plant, VIOTR (Viola tricolor [7]): 100%; Effect in % in respect of stated plant, STEME (Stellaria media): 80%; Effect in % in respect of stated plant, SETVI (Setaria viridis): 80%; Effect in % in respect of stated plant, ECHCG (Echinochloa crus-galli): 90%
3 | N.N#CC(C#N)c1nc(-c2ccc(Cl)cc2)nc(N)c1Br [Compound 313] | 100% | 90% | 100% | – | – | 80% | Effect in % in respect of stated plant, VIOTR (Viola tricolor [4]): 80%; Effect in % in respect of stated plant, STEME (Stellaria media): 90%
4 | N#C[C-](C#N)c1nc(-c2ccc(Cl)c(Cl)c2)nc(N)c1Cl.[Na+] [Compound 340] | 90% | 90% | 90% | 90% | – | 80% | –
5 | N.N#CC(C#N)c1nc(-c2ccc(Cl)cc2Cl)nc(N)c1Cl [Compound 375] | 90% | 90% | 100% | 100% | 100% | 90% | Effect in % in respect of stated plant, AMARE (Amaranthus retroflexus [5]): 100%; Effect in % in respect of stated plant, VIOTR (Viola tricolor [7]): 80%
6 | N.N#CC(C#N)c1nc(-c2ccc(F)cc2F)nc(N)c1Cl [Compound 383] | 90% | 90% | 90% | 100% | – | 80% | –
7 | Cc1ccc(-c2nc(N)c(Cl)c(C(C#N)C#N)n2)cc1F.N [Compound 385] | – | 80% | 100% | 80% | – | 80% | –
8 | Cc1cc(-c2nc(N)c(Cl)c(C(C#N)C#N)n2)ccc1F.N [Compound 389] | 80% | – | 80% | 80% | – | 80% | –
9 | N.N#CC(C#N)c1nc(-c2cccc(Cl)c2Cl)nc(N)c1Cl [Compound 390] | 80% | – | 90% | 80% | – | – | –
10 | Cc1ccc(-c2nc(N)c(Cl)c(C(C#N)C#N)n2)c(F)c1.N [Compound 391] | – | – | – | 80% | – | – | –
11 | N#CC(C#N)c1nc(-c2ccccc2)nc(N)c1Cl [Ex. No. 1, [6-Amino-5-chloro-2-phenylpyrimidin-4-yl]propanedinitrile] | – | – | – | – | – | – | herbicidal effect [3, 8]: at least 80%; herbicidal effect (Veronica persica [1]; [8]): at least 80%; herbicidal effect (Matricaria inodora; [8]): at least 80%
12 | N#CC(C#N)c1nc(-c2ccc(Cl)cc2)nc(N)c1Cl [Ex. No. 29, [6-Amino-5-chloro-2-(4-chlorophenyl)pyrimidin-4-yl]propanedinitrile] | 90% | – | – | – | 100% | 80% | Effect in % in respect of stated plant, VIOTR (Viola tricolor [4]): 80%; Effect in % in respect of stated plant, VIOTR (Viola tricolor [7]): 80%
13 | N#CC(C#N)c1nc(-c2ccc(C(F)(F)F)cc2)nc(N)c1Cl [compound 45] | 90% | 80% | – | 80% | – | – | Effect in % in respect of stated plant, VIOTR (Viola tricolor [4]): 80%; Effect in % in respect of stated plant, SETVI (Setaria viridis): 80%
14 | N#CC(C#N)c1nc(-c2ccc(Cl)c(C(F)(F)F)c2)nc(N)c1Cl [compound 87] | 90% | 90% | – | – | – | – | –
15 | N#CC(C#N)c1nc(-c2ccc(Cl)c(Cl)c2)nc(N)c1Cl [compound 104] | 90% | 90% | 90% | 80% | – | 80% | Effect in % in respect of stated plant, VIOTR (Viola tricolor [4]): 80%; Effect in % in respect of stated plant, SETVI (Setaria viridis): 80%; Effect in % in respect of stated plant, ECHCG (Echinochloa crus-galli): 80%
16 | N#CC(C#N)c1nc(-c2ccc(Cl)cc2Cl)nc(N)c1Cl [compound 186] | 90% | 90% | 100% | 100% | 100% | 100% | Effect in % in respect of stated plant, VIOTR (Viola tricolor [4]): 80%; Effect in % in respect of stated plant, AMARE (Amaranthus retroflexus [5]): 90%; Effect in % in respect of stated plant, STEME (Stellaria media): 90%
17 | N#CC(C#N)c1nc(-c2ccc(F)cc2F)nc(N)c1Cl [compound 201] | 90% | 80% | 90% | 90% | – | – | –
18 | N#CC(C#N)c1nc(-c2cc(F)ccc2N)nc(N)c1Cl [compound 203] | – | – | – | – | 90% | – | Effect in % in respect of stated plant, AMARE (Amaranthus retroflexus [5]): 100%
19 | Cc1ccc(-c2nc(N)c(Cl)c(C(C#N)C#N)n2)cc1F [compound 204] | 80% | 80% | 90% | 80% | – | 90% | Effect in % in respect of stated plant, ECHCG (Echinochloa crus-galli): 80%
20 | Cc1cc(-c2nc(N)c(Cl)c(C(C#N)C#N)n2)ccc1F [compound 205] | – | – | – | – | 100% | – | Effect in % in respect of stated plant, VIOTR (Viola tricolor [7]): 100%
21 | N#CC(C#N)c1nc(-c2cccc(Cl)c2Cl)nc(N)c1Cl [compound 207] | 90% | 80% | 100% | 100% | – | 80% | Effect in % in respect of stated plant, STEME (Stellaria media): 80%
22 | N#CC(C#N)c1nc(-c2cc(F)c(Cl)c(F)c2)nc(N)c1Cl [compound 210] | 80% | – | 90% | – | 80% | – | Effect in % in respect of stated plant, VIOTR (Viola tricolor [7]): 100%
23 | N#CC(C#N)c1nc(C2CCCCC2)nc(N)c1Cl [compound 240] | 90% | 80% | – | – | – | 80% | –
